According to paper PMC12606464, “Investigating NFE2L1 activators for targeted protein aggregate clearance: a follow-up study” (RSC Medicinal Chemistry, 2025):

System: NFE2L1 pathway (DDI2-dependent) in HCT116 cells
Assay: 3×PSMA4-ARE-LUC reporter in HCT116 WT and DDI2 knockout cells
Assay type: cell-based, human
Description: Fig. 1 (A) Targeted library screening of RUN compounds using the 3×PSMA4-ARE-LUC dual reporter assay in HEK293 cells. Cells were exposed to RUN compounds (5 μM) for 16 hours, and luciferase activity was measured. Data are presented as the mean ± SD from three independent experiments (n = 3). Results are shown as a fold change in luminescence relative to DMSO-treated cells. Selected hit compounds are highlighted in distinct colours. (B) RUN-89 specifically activates the NFE2L1 pathway. The DDI2 knockout (KO) and parental (WT) HCT116 cells were transfected with the 3×PSMA4-ARE-LUC reporter and treated with 0.5 μM bortezomib (BTZ) and 5 μM RUN-89 for 16 hours. Data are presented as the Geomean ± GeoSD of three independent experiments (n = 3). Statistical analysis was performed on log2-transformed values using two-way repeated-measures ANOVA followed by Šídak's multiple comparison test. (C) RUN-89 selectively triggers downstream signaling events associated with NFE2L1 gene expression. HEK293 cells were transfected with lipid nanoparticles (LNPs) carrying siRNAs targeting NFE2L1 or NFE2L2. LNPs formulated with non-targeting siRNA served as a negative control. Following 24 hours of incubation, cells were treated with 7.5 μM RUN-89 or DMSO (vehicle) for an additional 16 hours. Expression of the proteasomal subunit gene PSMC4 was then quantified by RT-qPCR. Data are shown as the Geomean ± GeoSD from three independent biological replicates (n = 3). Log2-transformed data were analyzed using two-way repeated-measures ANOVA with the Geisser–Greenhouse correction, followed by Tukey's multiple comparison test with individual variances computed for each comparison. Additional results for NFE2L1, NFE2L2, PSMB7, and PSMD12 are presented in SI Fig. S10.
To clarify whether the representative compound RUN-89 activates the NFE2L1-specific luciferase reporter independently of the KEAP1–NFE2L2 pathway, we used the 3×PSMA4-ARE-LUC dual reporter in previously published DDI2 knockout HCT116 cells (from ATCC CCL-247 (RRID:CVCL_0291)), in which the protease essential for NFE2L1 activation is disrupted. […] These findings indicate that RUN-89 activates the reporter construct through NFE2L1.
2 Biology Experimental Procedures […]
Cell lines were sourced from the ATCC (USA) and/or ECACC (UK), namely HCT116 (human colorectal carcinoma), ATCC CCL-247 (RRID:CVCL_0291), HEK-293 (human embryonic kidney), ATCC CRL-1573 (RRID:CVCL_0045), SH-SY5Y (human neuroblastoma), ATCC CRL-2266 (RRID:CVCL_0019). The characteristics of DDI2 knockout cells derived from HCT116 cells have been described previously (Sedlacek et al., 2025). All cell lines were tested for mycoplasma contamination. Most of the cell lines were cultured in Dulbecco's Modified Eagle Medium (DMEM) enriched with 10% fetal bovine serum (FBS) and 2 mM L-glutamine, under standard conditions of 37 °C with 5% CO₂. DNA transfection was performed with Lipofectamine 2000, following the manufacturer's instructions. […]
alamarBlue assay according to the standard protocol.(1)
2.3 Dual luciferase phenotypic assays
HEK293-derived cells stably expressing the 3×PSMA4-ARE-Luc reporter were maintained at low to mid passage numbers before use. For each experiment, cells were transiently transfected with the pRL-TK Renilla luciferase plasmid using Lipofectamine 2000.
Approximately 5–6 hours post-transfection, cells were seeded into plate format according to the experiment (384-well plate mostly). On the following day, cells were treated with the indicated test compounds or DMSO vehicle control for 16 hours (unless otherwise specified).
After treatment, cells were lysed and luciferase activities were quantified using the Dual-Luciferase® Reporter Assay System according to the manufacturer’s instructions and established protocols.(2, 3) For assays using the CMV-XBP-Gluc construct encoding Gaussia […]

COc1ccc(/C=C2\CC(NC(=O)C3CCCC3)C/C(=C\c3ccc(OC)c(OC)c3)C2=O)cc1OC (stereo not shown) [RUN-89]
Mean log2-transformed reporter fold change, HCT116 KO 04 (DDI2-/- clone KO 04, 0.5 μM BTZ or 5 μM RUN-89, 16 h, DMSO = 0): 0.09237
Mean log2-transformed reporter fold change, HCT116 KO 11 (DDI2-/- clone KO 11, 0.5 μM BTZ or 5 μM RUN-89, 16 h, DMSO = 0): 0.4773
Reporter activity in DDI2-deficient cells (DDI2 knockout HCT116, in contrast to wild-type cells): neither the proteasome inhibitor bortezomib nor RUN-89 induced reporter activity
Mean log2-transformed reporter fold change, HCT116 WT (WT (DDI2+/+), 0.5 μM BTZ or 5 μM RUN-89, 16 h, DMSO = 0): 1.7
